Literature values, collected in patent US4112071A, “Antibiotic complex” (priority 1977, dated 1978).

Assays:
[1] = tested on: several animal tumor systems; details: J. Antibiotics, April 1974, 254-259
[2] = tested on: animal and human cancers; details: Cancer Chemother. Rep., Part 1, 58, 255 (1974)

For `CC(=O)[C@]1(O)Cc2c(O)c3c(c(O)c2[C@@H](O[C@H]2C[C@H](N)[C@H](O)[C@H](C)O2)C1)C(=O)c1c(O)cccc1C3=O` [carminomycin I], which “activity against several animal tumor systems” value [1] is on record?
Its value is “active”.

And the “antitumor activity in a variety of animal and human cancers” value [2]?
The value was “promising antitumor activity”.
